ChEMBL document CHEMBL1155552, “New hydroxypyrimidinone-containing sulfonamides as carbonic anhydrase inhibitors also acting as MMP inhibitors” (Bioorg Med Chem Lett, 2010)

Columns and labels:
[1] = molecular target: 72 kDa type IV collagenase (Homo sapiens) (UniProt P08253); assay: Inhibition of MMP2 at 100 uM
[2] = molecular target: 72 kDa type IV collagenase (Homo sapiens) (UniProt P08253); assay: Inhibition of MMP2 at 3 uM
[3] = molecular target: T1, Matrilysin (Homo sapiens) (UniProt P09237); assay: Inhibition of MMP7 at 100 uM
T1 sequence (whole entry): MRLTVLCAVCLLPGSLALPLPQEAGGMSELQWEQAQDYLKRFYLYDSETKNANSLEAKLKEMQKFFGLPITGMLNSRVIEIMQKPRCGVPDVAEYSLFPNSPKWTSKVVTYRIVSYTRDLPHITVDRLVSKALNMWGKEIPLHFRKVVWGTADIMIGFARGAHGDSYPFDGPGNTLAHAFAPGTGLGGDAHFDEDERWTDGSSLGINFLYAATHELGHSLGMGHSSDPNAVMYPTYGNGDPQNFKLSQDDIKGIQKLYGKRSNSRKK

[4] = molecular target: T1, Matrilysin (Homo sapiens); assay: Inhibition of MMP7 at 3 uM
[5] = molecular target: Matrix metalloproteinase-9 (Homo sapiens) (UniProt P14780); assay: Inhibition of MMP9 at 100 uM
[6] = molecular target: Matrix metalloproteinase-9 (Homo sapiens) (UniProt P14780); assay: Inhibition of MMP9 at 3 uM
[7] = molecular target: Matrix metalloproteinase-14 (Homo sapiens) (UniProt P50281); assay: Inhibition of MMP14 at 100 uM
[8] = molecular target: Matrix metalloproteinase-14 (Homo sapiens) (UniProt P50281); assay: Inhibition of MMP14 at 3 uM
[9] = molecular target: 72 kDa type IV collagenase (Homo sapiens) (UniProt P08253); assay: Inhibition of MMP2 at 300 uM
[10] = molecular target: 72 kDa type IV collagenase (Homo sapiens) (UniProt P08253); assay: Inhibition of MMP2 at 30 nM
[11] = molecular target: Matrix metalloproteinase-9 (Homo sapiens) (UniProt P14780); assay: Inhibition of MMP9 at 30 nM
Carbonic anhydrase 9 = Carbonic anhydrase 9 (Homo sapiens, UniProt Q16790)
Description: Inhibition of human carbonic anhydrase 9

Carbonic anhydrase 2 = Carbonic anhydrase 2 (Homo sapiens, UniProt P00918); assay: Inhibition of human carbonic anhydrase 2
[12] = molecular target: 72 kDa type IV collagenase (Homo sapiens) (UniProt P08253); assay: Inhibition of MMP2 at 30 uM
[13] = molecular target: Matrix metalloproteinase-9 (Homo sapiens) (UniProt P14780); assay: Inhibition of MMP9 at 10 uM
[14] = molecular target: Matrix metalloproteinase-9 (Homo sapiens) (UniProt P14780); assay: Inhibition of MMP9 at 1 uM

Chain of 72 kDa type IV collagenase (Homo sapiens) (P08253 110-660 limits assumed): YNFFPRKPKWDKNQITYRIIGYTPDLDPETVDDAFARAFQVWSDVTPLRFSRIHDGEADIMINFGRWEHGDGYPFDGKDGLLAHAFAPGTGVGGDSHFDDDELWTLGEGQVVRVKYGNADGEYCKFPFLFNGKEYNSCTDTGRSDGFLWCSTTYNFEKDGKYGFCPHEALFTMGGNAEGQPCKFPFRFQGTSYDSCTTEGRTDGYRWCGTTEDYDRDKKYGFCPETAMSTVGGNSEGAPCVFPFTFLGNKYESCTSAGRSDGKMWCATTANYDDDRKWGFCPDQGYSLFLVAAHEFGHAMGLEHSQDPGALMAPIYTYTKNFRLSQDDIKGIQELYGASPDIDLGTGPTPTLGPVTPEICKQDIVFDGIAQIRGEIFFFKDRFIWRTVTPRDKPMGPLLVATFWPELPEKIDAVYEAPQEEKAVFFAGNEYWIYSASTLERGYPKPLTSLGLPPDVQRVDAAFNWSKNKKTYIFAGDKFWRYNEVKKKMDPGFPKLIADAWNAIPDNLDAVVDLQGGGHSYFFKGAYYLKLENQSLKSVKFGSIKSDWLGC
Chain of Matrix metalloproteinase-9 (Homo sapiens) (P14780 whole entry): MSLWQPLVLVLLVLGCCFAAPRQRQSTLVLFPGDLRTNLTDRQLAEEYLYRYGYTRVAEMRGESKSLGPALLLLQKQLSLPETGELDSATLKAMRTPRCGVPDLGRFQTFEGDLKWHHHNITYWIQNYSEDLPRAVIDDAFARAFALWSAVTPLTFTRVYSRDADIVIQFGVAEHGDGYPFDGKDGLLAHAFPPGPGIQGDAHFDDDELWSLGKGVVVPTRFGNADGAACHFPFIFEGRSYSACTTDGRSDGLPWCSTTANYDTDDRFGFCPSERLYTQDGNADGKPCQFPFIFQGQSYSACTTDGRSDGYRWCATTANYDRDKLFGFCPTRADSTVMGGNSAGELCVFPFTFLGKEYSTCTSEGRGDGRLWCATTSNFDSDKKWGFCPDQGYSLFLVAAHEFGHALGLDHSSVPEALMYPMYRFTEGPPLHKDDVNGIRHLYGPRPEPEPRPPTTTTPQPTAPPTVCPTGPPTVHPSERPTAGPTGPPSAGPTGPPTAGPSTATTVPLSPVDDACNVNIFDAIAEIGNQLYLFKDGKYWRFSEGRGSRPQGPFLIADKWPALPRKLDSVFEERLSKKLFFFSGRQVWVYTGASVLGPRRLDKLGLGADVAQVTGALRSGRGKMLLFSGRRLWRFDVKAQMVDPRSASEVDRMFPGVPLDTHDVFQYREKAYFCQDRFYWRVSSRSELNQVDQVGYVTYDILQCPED

Row | inhibition [1] | inhibition [2] | inhibition [3] | inhibition [4] | inhibition [5] | inhibition [6] | inhibition [7] | Ki (Carbonic anhydrase 9) | SMILES | also measured
1 |  |  |  |  |  |  |  | 4.1 nM | NS(=O)(=O)c1ccc(CCNC(=O)CCCCCNc2ccn(O)c(=O)n2)cc1 | 
2 |  |  |  |  |  |  |  | 3.4 nM | NS(=O)(=O)c1ccc(NC(=O)CCCNc2ccn(O)c(=O)n2)cc1 | 
3 | 86% | 7.4% | 38% |  | 67% |  | 48% |  | NS(=O)(=O)c1ccc(CCNc2ccn(O)c(=O)n2)cc1 | inhibition [12]: 19.6%; inhibition [13]: 9%; inhibition [14]: 6%

Further lines, the compound ahead of its results:

Row | SMILES | inhibition [1] | inhibition [2] | inhibition [3] | inhibition [4] | inhibition [5] | inhibition [6] | inhibition [7] | Ki (Carbonic anhydrase 9) | also measured
4 | NCCCCCNc1ccn(O)c(=O)n1 | 24% | 9% | 30% | 1% | 23% | 3% | 42% |  | inhibition [8]: 3%
5 | NCCCCNc1ccn(O)c(=O)n1 |  | 22% | 29% | 9% | 26% | 6% | 28% |  | inhibition [9]: 88%; inhibition [10]: 30%; inhibition [11]: 1%
6 | COC(=O)CCCCCNc1ccn(O)c(=O)n1 |  |  |  |  |  |  |  | > 1000 nM | Ki (Carbonic anhydrase 2): 270000 nM
